Measurements as given in patent publication US20120245137A1 (Zalicus Pharmaceuticals Ltd., priority 2009, published 2012).
Like-named read-outs stand apart in the source and are kept apart here.

Tests used:
Type in all cases: cell-based
[1] = target: T-type calcium channel (Homo sapiens, UniProt O95180); assay: T-type channel blocking, FLIPR data (Table 6); settings: for CAv3.2 IC50 Ratio closed/inact.: CAv3.2, ratio closed/inactivated IC50
Excerpt: (§1) Another method, high-throughput spectrophotometric assay, utilizes loading of the cell lines with a fluorescent dye sensitive to intracellular calcium concentration and subsequent examination of the effects of compounds on the ability of depolarization by potassium chloride or other means to alter intracellular calcium levels.

[2] = target: T-type calcium channel (Homo sapiens, UniProt O43497); assay: T-type channel blocking, FLIPR data (Table 6); settings: CAv3.1
Chain of T-type calcium channel (Homo sapiens, UniProt O43497) (O43497 whole entry): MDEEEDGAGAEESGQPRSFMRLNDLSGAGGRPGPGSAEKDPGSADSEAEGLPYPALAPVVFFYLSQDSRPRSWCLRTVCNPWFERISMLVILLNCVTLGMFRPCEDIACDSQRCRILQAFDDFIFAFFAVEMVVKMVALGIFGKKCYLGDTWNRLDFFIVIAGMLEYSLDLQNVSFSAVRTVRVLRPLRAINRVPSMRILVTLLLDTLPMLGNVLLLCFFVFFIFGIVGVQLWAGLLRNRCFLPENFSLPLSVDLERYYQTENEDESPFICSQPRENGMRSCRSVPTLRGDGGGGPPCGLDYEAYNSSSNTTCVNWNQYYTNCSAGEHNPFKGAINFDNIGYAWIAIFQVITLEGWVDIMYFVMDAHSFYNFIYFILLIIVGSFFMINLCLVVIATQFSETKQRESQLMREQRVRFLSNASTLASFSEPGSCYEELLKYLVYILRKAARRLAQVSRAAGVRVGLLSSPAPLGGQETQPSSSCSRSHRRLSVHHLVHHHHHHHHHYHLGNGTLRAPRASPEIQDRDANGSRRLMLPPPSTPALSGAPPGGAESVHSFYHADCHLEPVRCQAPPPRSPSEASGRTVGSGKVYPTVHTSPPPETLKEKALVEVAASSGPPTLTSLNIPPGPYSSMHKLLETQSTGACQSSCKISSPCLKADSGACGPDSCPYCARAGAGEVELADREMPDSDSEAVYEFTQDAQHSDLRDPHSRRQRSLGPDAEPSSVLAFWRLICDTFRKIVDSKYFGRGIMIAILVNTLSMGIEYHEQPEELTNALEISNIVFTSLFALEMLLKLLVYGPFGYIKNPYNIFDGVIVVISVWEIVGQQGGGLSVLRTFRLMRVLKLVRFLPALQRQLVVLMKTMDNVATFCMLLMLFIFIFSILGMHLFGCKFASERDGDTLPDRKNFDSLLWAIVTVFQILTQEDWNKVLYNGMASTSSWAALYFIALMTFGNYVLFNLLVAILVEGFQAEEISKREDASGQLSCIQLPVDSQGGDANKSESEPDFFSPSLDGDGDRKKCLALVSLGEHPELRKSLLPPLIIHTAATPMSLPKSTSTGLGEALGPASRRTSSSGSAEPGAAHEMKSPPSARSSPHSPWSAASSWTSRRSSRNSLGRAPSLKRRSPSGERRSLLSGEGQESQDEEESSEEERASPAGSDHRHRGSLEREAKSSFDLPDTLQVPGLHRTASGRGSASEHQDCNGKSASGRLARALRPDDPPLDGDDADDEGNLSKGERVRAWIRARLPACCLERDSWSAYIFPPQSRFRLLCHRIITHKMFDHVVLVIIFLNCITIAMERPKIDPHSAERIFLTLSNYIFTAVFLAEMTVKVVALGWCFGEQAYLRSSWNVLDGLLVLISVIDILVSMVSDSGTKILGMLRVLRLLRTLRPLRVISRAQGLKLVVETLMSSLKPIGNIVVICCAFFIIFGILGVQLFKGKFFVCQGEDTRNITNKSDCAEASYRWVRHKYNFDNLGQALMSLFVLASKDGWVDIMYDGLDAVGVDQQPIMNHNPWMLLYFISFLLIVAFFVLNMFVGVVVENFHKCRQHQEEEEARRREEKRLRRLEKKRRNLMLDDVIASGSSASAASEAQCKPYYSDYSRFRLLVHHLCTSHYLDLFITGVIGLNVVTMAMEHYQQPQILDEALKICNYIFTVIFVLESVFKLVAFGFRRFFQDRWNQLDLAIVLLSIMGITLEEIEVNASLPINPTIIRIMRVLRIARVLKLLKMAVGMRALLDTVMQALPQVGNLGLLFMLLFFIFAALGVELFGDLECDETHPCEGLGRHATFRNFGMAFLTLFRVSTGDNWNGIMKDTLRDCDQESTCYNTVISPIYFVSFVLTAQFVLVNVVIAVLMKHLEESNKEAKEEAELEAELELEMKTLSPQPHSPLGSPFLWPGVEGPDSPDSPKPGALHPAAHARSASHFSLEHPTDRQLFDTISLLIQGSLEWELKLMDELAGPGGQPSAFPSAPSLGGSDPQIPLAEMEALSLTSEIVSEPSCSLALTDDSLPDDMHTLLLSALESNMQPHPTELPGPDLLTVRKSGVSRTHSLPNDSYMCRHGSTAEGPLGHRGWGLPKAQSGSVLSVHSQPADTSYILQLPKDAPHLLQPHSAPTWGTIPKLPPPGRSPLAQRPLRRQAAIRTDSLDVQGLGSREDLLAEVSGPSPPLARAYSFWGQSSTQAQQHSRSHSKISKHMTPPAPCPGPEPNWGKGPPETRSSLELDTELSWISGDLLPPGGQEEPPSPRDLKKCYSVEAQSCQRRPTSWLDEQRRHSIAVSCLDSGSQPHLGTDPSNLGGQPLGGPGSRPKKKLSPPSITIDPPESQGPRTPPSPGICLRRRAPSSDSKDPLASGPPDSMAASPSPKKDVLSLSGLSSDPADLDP
Excerpt: as §1

[3] = target: CAv1.2 (Homo sapiens, UniProt Q13936); assay: FLIPR data, CAv1.2 channel blocking (Table 6); settings: for CAv1.2 IC50 Ratio closed/inact.: ratio closed/inactivated IC50
[4] = target: Human Cav 2.2 channels (Homo sapiens, UniProt Q00975); assay: Fluorescent assay for CaV2.2 channels using potassium depolarization (VIPR/FLIPR); settings: FLIPR data; for CAv2.2 IC50 Ratio closed/inact.: ratio closed/inactivated IC50
Method in brief: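 Fluo-4 calcium fluorescence (480/535 nm) was recorded on VIPR or FLIPR after depolarization to 70 mM final potassium. Before this, cells were preincubated 30 min at 25 °C with compound in 4–30 mM potassium, so that state-dependent block could be assessed; the cells were HEK293 coexpressing Cav2.2, α2δ, β and Kir2.3.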

[5] = CAv3.2, closed state, read-out: CAv3.2 IC50 Closed
[6] = CAv3.2, inactivated state, read-out: CAv3.2 IC50 Inact.
[7] = closed state, read-out: CAv1.2 IC50 Closed
[8] = inactivated state, read-out: CAv1.2 IC50 Inact.
[9] = closed state, read-out: CAv2.2 IC50 Closed
[10] = inactivated state, read-out: CAv2.2 IC50 Inact.

Chain of T-type calcium channel (Homo sapiens, UniProt O95180) (O95180 whole entry): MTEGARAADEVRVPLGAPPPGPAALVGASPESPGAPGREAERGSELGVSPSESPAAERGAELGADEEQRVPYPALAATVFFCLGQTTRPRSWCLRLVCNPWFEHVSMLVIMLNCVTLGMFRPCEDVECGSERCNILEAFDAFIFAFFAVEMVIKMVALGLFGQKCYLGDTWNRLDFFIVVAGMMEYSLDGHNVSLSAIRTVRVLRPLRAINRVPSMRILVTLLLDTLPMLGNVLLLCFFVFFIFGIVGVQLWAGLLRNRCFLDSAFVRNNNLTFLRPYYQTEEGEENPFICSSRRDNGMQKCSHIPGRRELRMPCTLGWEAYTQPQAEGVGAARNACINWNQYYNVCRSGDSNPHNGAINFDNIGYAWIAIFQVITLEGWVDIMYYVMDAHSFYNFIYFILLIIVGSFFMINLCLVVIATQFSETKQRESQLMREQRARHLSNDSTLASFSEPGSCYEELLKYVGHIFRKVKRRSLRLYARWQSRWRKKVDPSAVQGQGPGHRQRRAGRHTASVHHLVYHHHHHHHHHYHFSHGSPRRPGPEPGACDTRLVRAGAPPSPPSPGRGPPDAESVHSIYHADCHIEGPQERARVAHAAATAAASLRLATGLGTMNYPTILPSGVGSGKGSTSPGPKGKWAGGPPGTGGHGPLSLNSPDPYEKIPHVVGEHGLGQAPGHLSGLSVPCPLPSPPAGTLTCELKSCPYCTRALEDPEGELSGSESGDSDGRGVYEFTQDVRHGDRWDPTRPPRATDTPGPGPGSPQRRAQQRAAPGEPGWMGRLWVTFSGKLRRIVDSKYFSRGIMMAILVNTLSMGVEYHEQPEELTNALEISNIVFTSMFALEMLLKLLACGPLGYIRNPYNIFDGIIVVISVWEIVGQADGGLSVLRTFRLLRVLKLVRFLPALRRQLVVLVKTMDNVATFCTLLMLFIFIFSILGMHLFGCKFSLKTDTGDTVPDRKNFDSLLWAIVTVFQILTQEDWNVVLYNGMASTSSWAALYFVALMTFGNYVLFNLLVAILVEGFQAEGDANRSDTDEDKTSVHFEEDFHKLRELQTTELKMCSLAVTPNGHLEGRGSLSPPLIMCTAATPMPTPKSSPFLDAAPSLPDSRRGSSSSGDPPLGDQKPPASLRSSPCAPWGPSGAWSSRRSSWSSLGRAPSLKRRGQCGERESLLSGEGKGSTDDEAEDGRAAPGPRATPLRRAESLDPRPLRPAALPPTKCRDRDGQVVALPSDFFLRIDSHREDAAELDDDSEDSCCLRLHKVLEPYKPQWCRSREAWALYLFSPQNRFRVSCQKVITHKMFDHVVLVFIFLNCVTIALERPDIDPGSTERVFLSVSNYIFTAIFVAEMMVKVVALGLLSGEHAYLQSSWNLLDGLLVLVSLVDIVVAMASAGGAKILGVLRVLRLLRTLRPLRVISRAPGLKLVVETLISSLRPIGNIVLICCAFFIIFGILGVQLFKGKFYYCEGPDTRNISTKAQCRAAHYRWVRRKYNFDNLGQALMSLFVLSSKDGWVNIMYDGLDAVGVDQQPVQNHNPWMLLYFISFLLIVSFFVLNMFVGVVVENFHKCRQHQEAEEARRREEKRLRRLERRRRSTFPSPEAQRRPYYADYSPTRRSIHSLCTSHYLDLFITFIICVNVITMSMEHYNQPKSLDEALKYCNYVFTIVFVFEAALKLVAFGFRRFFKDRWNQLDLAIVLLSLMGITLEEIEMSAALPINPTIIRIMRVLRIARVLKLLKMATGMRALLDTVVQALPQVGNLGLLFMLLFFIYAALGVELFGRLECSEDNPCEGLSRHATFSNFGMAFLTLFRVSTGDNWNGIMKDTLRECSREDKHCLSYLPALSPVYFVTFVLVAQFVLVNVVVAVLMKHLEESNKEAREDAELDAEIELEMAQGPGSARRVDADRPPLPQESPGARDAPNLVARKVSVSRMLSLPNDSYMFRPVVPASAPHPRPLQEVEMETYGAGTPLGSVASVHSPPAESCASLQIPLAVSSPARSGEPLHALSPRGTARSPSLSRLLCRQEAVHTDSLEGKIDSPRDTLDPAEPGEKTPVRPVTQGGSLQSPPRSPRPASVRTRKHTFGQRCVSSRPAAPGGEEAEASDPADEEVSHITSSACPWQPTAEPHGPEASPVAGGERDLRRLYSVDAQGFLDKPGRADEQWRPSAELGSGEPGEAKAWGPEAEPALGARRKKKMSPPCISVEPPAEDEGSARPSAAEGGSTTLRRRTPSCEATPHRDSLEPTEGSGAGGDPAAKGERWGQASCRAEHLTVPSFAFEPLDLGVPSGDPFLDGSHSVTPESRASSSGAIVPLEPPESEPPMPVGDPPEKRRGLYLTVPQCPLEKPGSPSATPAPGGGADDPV

Compound	IC50 [1, 5] [µM]	IC50 [1, 6] [µM]	CAv3.2 IC50 Ratio closed/inact. [1]	IC50 [2] [µM]	IC50 [3, 7] [µM]	IC50 [3, 8] [µM]	CAv1.2 IC50 Ratio closed/inact. [3]	IC50 [4, 9] [µM]	IC50 [4, 10] [µM]	CAv2.2 IC50 Ratio closed/inact. [4]
CC(C)(C1CC(CNC(=O)c2ccc(Cl)c(F)c2)C1)S(=O)(=O)c1cccc(C(F)(F)F)c1 (stereo not shown) [Compound 617]	2.69	0.81	3.3	8.03	4.05	0.38	10.7	1.34	0.15	8.9
CC(C)(C1CC(CNC(=O)c2ccc(F)c(Cl)c2)C1)S(=O)(=O)c1cccc(C(F)(F)F)c1 (stereo not shown) [Compound 618]	1.99	0.35	5.7	2.47	4.08	0.3	13.6	1.3	0.12	10.8
CC(C)(C1CC(CNC(=O)c2ccc(OCC(F)(F)F)nc2)C1)S(=O)(=O)c1cccc(C(F)(F)F)c1 (stereo not shown) [Compound 619]	3.29	1.27	2.6	5.12	4.42	1.36	3.3	1.66	0.26	6.4
CC(C)(C1CC(CNC(=O)c2ccnc(C(F)(F)F)c2)C1)S(=O)(=O)c1cccc(C(F)(F)F)c1 (stereo not shown) [Compound 620]	5.52	1.39	4	8.71	9.99	0.67	14.9	2.87	0.39	7.4
CC(C)(C1CC(CNC(=O)c2ccc(Cl)c(OC(F)(F)F)c2)C1)S(=O)(=O)c1cccc(C(F)(F)F)c1 (stereo not shown) [Compound 621]	1.53	0.2	7.7	1.47	3.39	0.24	14.1	1.83	0.15	12.2
CC(C)([C@H]1C[C@@H](NS(=O)(=O)c2ccc(C(F)(F)F)cc2Cl)C1)S(=O)(=O)c1cc(F)cc(C(F)(F)F)c1 [Compound 622]	≥ 10	4.48	2.2	4.86	9.01	1.94	4.6	4.79	0.68	7
CC(C)([C@H]1C[C@H](NS(=O)(=O)c2ccc(C(F)(F)F)cc2Cl)C1)S(=O)(=O)c1cc(F)cc(C(F)(F)F)c1 [Compound 623]	≥ 10	1.54	6.5	5.3	8.07	1.54	5.2	3.37	0.74	4.6
CC(C)([C@H]1C[C@@H](NS(=O)(=O)c2ccc(C(F)(F)F)cc2)C1)S(=O)(=O)c1cccc(C(F)(F)F)c1 [Compound 624]	2.96	2.26	1.3	2.96	≥ 10	5.54	1.8	10	0.8	12.5
CC(C)([C@H]1C[C@@H](NS(=O)(=O)c2ccc(F)c(Cl)c2)C1)S(=O)(=O)c1cccc(C(F)(F)F)c1 [Compound 625]	3.71	3.1	1.2	3.74	≥ 10	6.39	1.6	10	1.09	9.2
CC(C)([C@H]1C[C@@H](NS(=O)(=O)c2ccc(Cl)c(F)c2)C1)S(=O)(=O)c1cccc(C(F)(F)F)c1 [Compound 626]	3.85	2.58	1.5	3.77	9.15	5.4	1.7	8.45	1.1	7.7
CC(C)([C@H]1C[C@@H](NS(=O)(=O)c2ccc(C(F)(F)F)cc2Cl)C1)S(=O)(=O)c1cccc(C(F)(F)F)c1 [Compound 627]	2.2	1.33	1.7	2.38	≥ 10	5.86	1.7	10	0.88	11.4
CC(C)([C@H]1C[C@@H](NS(=O)(=O)c2ccc(F)c(C(F)(F)F)c2)C1)S(=O)(=O)c1cccc(C(F)(F)F)c1 [Compound 628]	3.22	3.26	1	2.18	≥ 10	5.32	1.9	10	1.22	8.2
CC(C)([C@H]1C[C@@H](NS(=O)(=O)c2ccc(C(F)(F)F)nc2)C1)S(=O)(=O)c1cccc(C(F)(F)F)c1 [Compound 629]	3.41	3.38	1	2.97	≥ 10	4.66	2.1	7.45	0.43	17.3
CC(C)([C@H]1C[C@@H](NS(=O)(=O)c2ccc(OC(F)(F)F)cc2)C1)S(=O)(=O)c1cccc(C(F)(F)F)c1 [Compound 630]	3.73	2.16	1.7	2.33	≥ 10	3.11	3.2	10	0.68	14.7
CC(C)([C@H]1C[C@H](NC(=O)c2cc(C(F)(F)F)n[nH]2)C1)S(=O)(=O)c1cccc(OC(F)(F)F)c1 [Compound 632]	0.57	1.52	0.4	9.41	≥ 10	3.3	3	5.69	0.46	12.4
CC(C)([C@H]1C[C@H](NC(=O)c2ccc(Cl)c(F)c2)C1)S(=O)(=O)c1cccc(OC(F)(F)F)c1 [Compound 633]	0.63	0.57	1.1	2.3	5.74	1.18	4.9	2.06	0.19	10.8
